According to patent US20080051463A1, “ANTHRACENE COMPOUNDS AND THEIR USE FOR TREATING BENIGN AND MALIGNANT TUMOR DISORDERS” (AETERNA ZENTARIS GmbH, priority 2006, published 2008):
pEC50: −log10 of the molar value. Converted amounts (≈) assume the structure as drawn. “And” between values parts separate entries of the source, which are not always exact repeats. Identical values can stand only once.

How the values were obtained:
[1] = system: bovine tubulin; test: Inhibition of the polymerization of bovine tubulin (in vitro); type: biochemical
From the text: In this test, tubulin purified by polymerization and depolymerization cycles is used, which is polymerized by addition of GTP and heating.
Table 1 states the %-inhibition values and Table 2 states the EC50 values of polymerization inhibition of tubulin with 30% associated proteins (MAPs).

[2] = target: T1, Eg513-437 (Homo sapiens, UniProt P52732); test: Inhibition of kinesin Eg5 activity, recombinant Eg513-437; type: biochemical; conditions: recombinant Eg513-437 (Table 4)
T1 construct: read as Eg5 residues 13-437
T1 sequence (P52732 1-1056): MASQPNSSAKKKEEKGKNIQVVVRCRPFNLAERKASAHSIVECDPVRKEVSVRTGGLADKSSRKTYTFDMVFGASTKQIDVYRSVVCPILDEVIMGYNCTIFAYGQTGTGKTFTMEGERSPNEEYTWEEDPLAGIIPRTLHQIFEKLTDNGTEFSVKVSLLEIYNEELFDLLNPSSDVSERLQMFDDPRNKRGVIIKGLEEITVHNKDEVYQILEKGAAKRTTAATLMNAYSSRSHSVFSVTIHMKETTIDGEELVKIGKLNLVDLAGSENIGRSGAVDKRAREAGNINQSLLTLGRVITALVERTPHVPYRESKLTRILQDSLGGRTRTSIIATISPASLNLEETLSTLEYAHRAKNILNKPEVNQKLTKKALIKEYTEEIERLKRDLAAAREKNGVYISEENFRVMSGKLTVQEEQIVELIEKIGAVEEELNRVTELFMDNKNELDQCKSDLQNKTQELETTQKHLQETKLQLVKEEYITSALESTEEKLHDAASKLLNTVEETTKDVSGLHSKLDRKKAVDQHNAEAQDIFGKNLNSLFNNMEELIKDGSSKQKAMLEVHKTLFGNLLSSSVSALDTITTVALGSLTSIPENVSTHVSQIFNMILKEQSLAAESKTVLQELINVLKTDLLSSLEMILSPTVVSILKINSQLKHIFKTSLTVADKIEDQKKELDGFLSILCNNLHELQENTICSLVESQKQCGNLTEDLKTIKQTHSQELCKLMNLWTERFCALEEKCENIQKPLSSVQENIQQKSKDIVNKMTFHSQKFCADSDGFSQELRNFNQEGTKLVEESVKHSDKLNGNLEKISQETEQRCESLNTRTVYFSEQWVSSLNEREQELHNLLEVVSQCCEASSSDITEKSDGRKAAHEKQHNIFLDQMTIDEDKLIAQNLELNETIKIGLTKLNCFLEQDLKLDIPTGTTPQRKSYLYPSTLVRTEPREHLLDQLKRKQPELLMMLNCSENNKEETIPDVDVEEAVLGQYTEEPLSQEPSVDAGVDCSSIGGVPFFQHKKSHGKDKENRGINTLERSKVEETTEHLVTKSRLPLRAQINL
From the text: In an in vitro test, compound 1 was examined for inhibition of Eg5 activity [Kodama, T. et al. J. Biochem. 99: 1465-1472 (1986)].
Here, the recombinant kinesins Eg513-437 (Table 3) and Eg51-406 (Table 4) were used.
Tables 4 and 5 state the EC50 values of Eg5 inhibition for the compound 1 according to the invention.

[3] = target: T2, complete recombinant KIF5A (Homo sapiens, UniProt Q12840); test: Inhibition of KIF5A ATPase activity (end-point assay); type: biochemical; conditions: microtubulus-activatable ATPase
T2 construct: Here, use was made of complete recombinant KIF5A
T2 sequence (Q12840 1-1032): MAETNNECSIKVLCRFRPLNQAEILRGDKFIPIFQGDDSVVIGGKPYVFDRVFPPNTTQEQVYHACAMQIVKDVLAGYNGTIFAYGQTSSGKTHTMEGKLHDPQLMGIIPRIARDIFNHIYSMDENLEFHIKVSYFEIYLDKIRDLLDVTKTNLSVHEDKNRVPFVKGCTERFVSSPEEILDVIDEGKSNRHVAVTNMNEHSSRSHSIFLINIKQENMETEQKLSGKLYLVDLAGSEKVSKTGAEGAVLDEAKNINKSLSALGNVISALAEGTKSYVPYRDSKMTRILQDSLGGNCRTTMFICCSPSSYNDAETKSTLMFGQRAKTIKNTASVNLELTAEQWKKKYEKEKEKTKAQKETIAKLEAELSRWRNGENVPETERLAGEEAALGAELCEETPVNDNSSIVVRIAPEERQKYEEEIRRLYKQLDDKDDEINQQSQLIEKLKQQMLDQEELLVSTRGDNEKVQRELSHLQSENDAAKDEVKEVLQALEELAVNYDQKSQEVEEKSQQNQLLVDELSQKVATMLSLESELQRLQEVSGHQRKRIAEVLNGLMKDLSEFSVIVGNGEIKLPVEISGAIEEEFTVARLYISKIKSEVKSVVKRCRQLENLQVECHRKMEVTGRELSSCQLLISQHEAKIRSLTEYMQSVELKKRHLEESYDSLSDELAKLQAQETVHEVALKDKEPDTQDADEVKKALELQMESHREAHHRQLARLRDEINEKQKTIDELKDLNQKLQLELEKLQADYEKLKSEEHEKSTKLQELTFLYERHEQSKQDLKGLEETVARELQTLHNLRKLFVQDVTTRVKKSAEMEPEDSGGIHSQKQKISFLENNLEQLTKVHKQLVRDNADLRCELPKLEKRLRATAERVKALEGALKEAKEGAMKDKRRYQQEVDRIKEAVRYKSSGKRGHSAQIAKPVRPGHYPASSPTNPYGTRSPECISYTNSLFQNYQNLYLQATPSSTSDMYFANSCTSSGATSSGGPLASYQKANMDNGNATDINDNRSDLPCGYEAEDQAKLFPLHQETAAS
Procedure: In an in vitro test, compound 1 was examined for inhibition of KIF5A ATPase activity. Here, use was made of complete recombinant KIF5A (Niclas J, Navone F, Hom-Booher N, Vale R D Neuron 1994, 12:1059-1072).
The activity of the microtubulus-activatable ATPase was determined by end-point assay. For tubulin isolation and preparation of the microtubuli see citations in Example II) b).
Table 6 states the EC50 value of the ATPase inhibition of KIF5A by compound 1 according to the invention.

[4] = system: human glioblastoma cell line SF-268; test: Proliferation test (cellular dehydrogenase activity), SF-268; type: cell-based
From the text: The antiproliferative activity of the compounds 1, 2, 4, 6, 7, 9, 10, 11, 12 and 13 according to the invention was investigated in a proliferation test performed on established tumor cell lines (D. A. Scuderio et al. Cancer Res. 1988, 48: 4827-4833).
The test used determines the cellular dehydrogenase activity and makes it possible to determine cell viability and determine cell number indirectly.
The cell lines used are the human cervical carcinoma cell line KB/HeLa (ATCC CCL17), the ovarian adenocarcinoma cell line SKOV-3 (ATCC HTB77), the human glioblastoma cell line SF-268 (NCI-503138) and the lung carcinoma cell line NCI-H460 (NCI-503473). In addition, an RKOp27 cell system was used for investigating the cell cycle-specific effect of the substance (M. Schmidt et al. Oncogene 2000, 19(20): 2423-9).

EC50 of polymerization inhibition of tubulin ([1]; bovine tubulin with 30% associated proteins (MAPs)): 7.15 mg/L and 8.02 mg/L
pEC50 [2]: 5.16 and 5.14 and 5.26 and 5.23
pEC50 [3]: 4.21
EC50 [4]: 0.076 mg/L (≈ 0.222 µM)
SMILES: O=C(C=C1c2ccccc2C(=O)c2ccccc21)c1ccc(O)c(O)c1 [Compound 1, 10-[2-(3,4-dihydroxy-phenyl)-2-oxo-ethylidene]-10H-anthracen-9-one]
Inhibition at 10 μg/ml [%] ([1]; 10 μg/ml, tubulin with 30% associated proteins (MAPs), repeat values): 98.2% and 83.0% and 86.9% and 79.7%
